Laboratory results: patent US20250144067A1, “PERSONALIZED STARVATION THERAPY FOR CANCER” (Faeth Therapeutics, Inc., priority 2021, published 2025)
Where a name gives a salt, the structure may show the parent alone. Read-outs that look alike come from different tables or passages of the source.

What was measured:
[1] = tested on: NCI-H292 lung cancer cells; assay: FDA drug screening, complete media vs cholesterol-free media without statin (TABLE 1); format: cell-based, human
[2] = tested on: NCI-H292 lung cancer cells; assay: FDA drug screening, complete media vs cholesterol-free media with simvastatin (TABLE 2); format: cell-based, human
[3] = NCI-H292 cells, cholesterol-free media without statin
[4] = NCI-H292 cells, FDA drug library screen, cholesterol-free media with simvastatin 0.04 μM
[5] = NCI-H292 cells, FDA drug library screen, complete media
[6] = complete media minus cholesterol-free media + simvastatin, >0 enhanced anti-cancer activity, about 0 neutral, <0 antagonist
[7] = Complete minus Cholesterol-free, >0 enhanced anti-cancer activity, about 0 neutral, <0 antagonist
[8] = NCI-H292 cells, cholesterol-free media with simvastatin 0.04 μM, FDA drug library screen (TABLE 2)
[9] = NCI-H292 cells, complete media, FDA drug library screen (TABLE 2)
[10] = complete media minus cholesterol-free media + simvastatin (0.04 μM), >0 enhanced anti-cancer activity, about 0 neutral, <0 antagonist
[11] = NCI-H292 cells, cholesterol-free media without statin, FDA drug library screen
[12] = NCI-H292 cells, complete media, FDA drug library screen
[13] = complete vs cholesterol-free media, >0 enhanced anti-cancer activity, about 0 neutral, <0 antagonist
[14] = NCI-H292 cells, cholesterol-free media with simvastatin 0.04 μM, cell growth value in FDA drug screen
[15] = NCI-H292 cells, complete media, cell growth value in FDA drug screen
[16] = Complete minus Cholesterol-free, greater than 0 enhanced anti-cancer activity, about 0 neutral, below 0 antagonists
[17] = NCI-H292 cells in cholesterol-free media without statin
[18] = NCI-H292 cells in complete media
[19] = complete media vs cholesterol-free media + simvastatin (0.04 μM), >0 enhanced anti-cancer activity, about 0 neutral, <0 antagonist
[20] = Complete minus Cholesterol-free, greater than 0 enhanced anti-cancer activity, about 0 neutral, below 0 antagonist
[21] = NCI-H292 cells, FDA drug library screen, cholesterol-free media without statin
[22] = Complete minus Cholesterol-free, […]
[23] = NCI-H292 cells, cholesterol-free media with simvastatin 0.04 μM, […]
[24] = NCI-H292 cells, complete media, […]
[25] = complete media minus cholesterol-free media + simvastatin, […]
[26] = NCI-H292 cells, FDA library drug in cholesterol-free media with simvastatin 0.04 μM
[27] = NCI-H292 cells, FDA library drug in complete media

N#Cc1ccc2[nH]cc(CCCCN3CCN(c4ccc5oc(C(N)=O)cc5c4)CC3)c2c1 [Vilazodone (Hydrochloride)]
Cholesterol-free [1, 3]: 1.019 | Complete ([1]; NCI-H292 cells, complete media): 0.6984 | Difference ([1]; complete vs cholesterol-free media, greater than 0 enhanced anti-cancer activity, about 0 neutral, below 0 antagonists): −0.32 | Cholesterol-free media + simvastatin (0.04 μM) [2, 4]: 0.5785 | Complete Media [2, 5]: 0.8037 | Difference [2, 6]: 0.23

N#Cc1ccc2[nH]cc(CCCCN3CCN(c4ccc5oc(C(=O)O)cc5c4)CC3)c2c1 [Vilazodone carboxylic acid]
Difference [1, 7]: −0.19 | Cholesterol-free [1, 3]: 0.9582 | Complete ([1]; NCI-H292 cells, complete media): 0.7696 | Cholesterol-free media + simvastatin (0.04 μM) [2, 8]: 1.218 | Complete Media [2, 9]: 1.232 | Difference [2, 10]: 0.01

N#Cc1ccc2[nH]cc(CCCCN3CCN(c4ccc5oc(C(N)=O)cc5c4)CC3)c2c1 [Vilazodone]
Cholesterol-free [1, 11]: 0.8843 | Complete [1, 12]: 1.054 | Difference [1, 13]: 0.17 | Cholesterol-free media + simvastatin (0.04 μM) [2, 14]: 0.8049 | Complete Media [2, 15]: 0.9107 | Difference [2, 6]: 0.11

N#C[C@@H]1CCCN1C(=O)CNC12CC3CC(CC(O)(C3)C1)C2 [Vildagliptin]
Difference [1, 16]: −0.50 | Cholesterol-free [1, 17]: 1.213 | Complete [1, 18]: 0.7138 | Cholesterol-free media + simvastatin (0.04 μM) [2, 4]: 1.588 | Complete Media [2, 5]: 1.466 | Difference [2, 19]: −0.12

CC[C@]12CCCN3CCc4c(n(c5ccccc45)C(=O)C1)[C@@H]32 [Vinburnine]
Cholesterol-free [1, 11]: 0.8229 | Complete [1, 12]: 1.424 | Difference [1, 13]: 0.60 | Cholesterol-free media + simvastatin (0.04 μM) [2, 4]: 1.049 | Complete Media [2, 5]: 1.235 | Difference [2, 6]: 0.19

CC[C@]12CCCN3CCc4c(n(c5ccccc45)[C@@](O)(C(=O)OC)C1)[C@@H]32 [Vincamine]
Cholesterol-free [1, 11]: 0.6922 | Complete [1, 12]: 1.178 | Difference [1, 13]: 0.49 | Cholesterol-free media + simvastatin (0.04 μM) [2, 8]: 0.8199 | Complete Media [2, 9]: 0.7686 | Difference [2, 10]: −0.05

CCOC(=O)C1=C[C@]2(CC)CCCN3CCc4c(n1c1ccccc41)[C@@H]32 [Vinpocetine]
Difference [1, 20]: −0.09 | Cholesterol-free [1, 21]: 0.912 | Complete [1, 5]: 0.8209 | Cholesterol-free media + simvastatin (0.04 μM) [2, 14]: 0.854 | Complete Media [2, 15]: 0.8952 | Difference [2, 6]: 0.04

CS(=O)(=O)c1ccc(C(=O)Nc2ccc(Cl)c(-c3ccccn3)c2)c(Cl)c1 [Vismodegib]
Difference [1, 7]: −0.05 | Cholesterol-free [1, 11]: 1.219 | Cholesterol-free media + simvastatin (0.04 μM) [2, 8]: 1.089 | Complete Media [2, 9]: 1.052 | Difference [2, 10]: −0.04

CC1=C(C)C(=O)C(CCCCCCCCCC[P+](c2ccccc2)(c2ccccc2)c2ccccc2)=CC1=O.[Br-] [Visomitin]
Difference [1, 22]: −0.06 | Cholesterol-free [1, 11]: 0.06935 | Complete [1, 12]: 0.01194 | Cholesterol-free media + simvastatin (0.04 μM) [2, 23]: 0.1378 | Complete Media [2, 24]: 0.1554 | Difference [2, 25]: 0.02

C=C1CC[C@H](O)C/C1=C/C=C1\CCC[C@]2(C)[C@@H]([C@H](C)/C=C/[C@H](C)C(C)C)CC[C@@H]12 [Vitamin D2]
Difference [1, 16]: −0.62 | Cholesterol-free [1, 17]: 1.409 | Complete [1, 18]: 0.7927 | Cholesterol-free media + simvastatin (0.04 μM) [2, 4]: 1.05 | Complete Media [2, 5]: 0.9687 | Difference [2, 19]: −0.08

CC1=C(C/C=C(\C)CCC[C@H](C)CCC[C@H](C)CCCC(C)C)C(=O)c2ccccc2C1=O [Vitamin K1]
Cholesterol-free [1, 11]: 0.9273 | Complete [1, 12]: 1.412 | Difference [1, 13]: 0.48 | Cholesterol-free media + simvastatin (0.04 μM) [2, 26]: 1.062 | Complete Media [2, 27]: 0.6359 | Difference [2, 19]: −0.43

CC(=O)Oc1cc(C)c(OC(C)=O)c2ccccc12 [Vitamin K4]
Difference [1, 22]: −0.21 | Cholesterol-free [1, 3]: 0.9817 | Complete ([1]; NCI-H292 cells, complete media): 0.7726 | Cholesterol-free media + simvastatin (0.04 μM) [2, 23]: 0.7559 | Complete Media [2, 24]: 0.8779 | Difference [2, 25]: 0.12

OCC(CO)N[C@H]1C[C@](O)(CO)[C@@H](O)[C@H](O)[C@H]1O [Voglibose]
Cholesterol-free [1]: 1.147 | Complete [1]: 1.027 | Difference [1]: −0.12 | Cholesterol-free media + simvastatin (0.04 μM) [2]: 0.9097 | Complete Media [2]: 0.6837 | Difference [2]: −0.23

CNCc1cc(-c2ccccc2F)n(S(=O)(=O)c2cccnc2)c1 [Vonoprazan]
Difference [1, 20]: −0.07 | Cholesterol-free [1, 21]: 1.105 | Complete [1, 5]: 1.031 | Cholesterol-free media + simvastatin (0.04 μM) [2, 26]: 1.249 | Complete Media [2, 27]: 0.8473 | Difference [2, 19]: −0.40
